# Measured values: patent US7115658B2 (priority 2002, dated 2006)
# Biological target: T1, Recombinant HCV polymerase (Hepatitis C virus genotype 1b, UniProt P26663)
# T1 construct: 2.5 pmoles (0.15 μg) HCV polymerase protein
# Assay: HCV Polymerase Inhibition Assay
# Format: biochemical
# Settings: primer/template-directed transcription, 30 minutes at 30° C.; category symbol
# Procedure, shortened: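 Recombinant genotype 1b polymerase (2.5 pmol) extended biotin-dG12 on poly(rC)300 with 1 μM GTP plus α-32P-GTP, pH 7.2, 30 min at 30 °C, 1% DMSO final; DE-filter-bound product counted. IC50 fitted from triplicate cpm, refitted with enzyme-concentration (30 nM) tight-binding equation when below 200 nM.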
# T1 sequence (P26663 2420-3010): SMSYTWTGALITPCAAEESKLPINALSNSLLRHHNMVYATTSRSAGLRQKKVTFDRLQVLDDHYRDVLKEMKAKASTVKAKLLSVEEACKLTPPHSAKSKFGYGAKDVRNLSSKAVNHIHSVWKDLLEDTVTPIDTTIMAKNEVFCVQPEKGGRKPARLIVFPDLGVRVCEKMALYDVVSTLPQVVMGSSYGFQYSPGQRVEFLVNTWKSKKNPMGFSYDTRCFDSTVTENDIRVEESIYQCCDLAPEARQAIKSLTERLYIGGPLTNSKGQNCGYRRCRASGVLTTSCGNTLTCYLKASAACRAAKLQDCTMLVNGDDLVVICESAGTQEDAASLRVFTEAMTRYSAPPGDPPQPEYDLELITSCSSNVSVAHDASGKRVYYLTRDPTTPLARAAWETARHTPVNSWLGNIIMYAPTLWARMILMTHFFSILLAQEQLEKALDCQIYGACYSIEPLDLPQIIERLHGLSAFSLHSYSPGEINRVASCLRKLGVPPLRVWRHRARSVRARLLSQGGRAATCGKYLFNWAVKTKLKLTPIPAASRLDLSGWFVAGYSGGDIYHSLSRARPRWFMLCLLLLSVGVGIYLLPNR
row,SMILES,IC50 [µM]
1,"COc1cc(OC)c(CCC2(C3CCCC3)CC(O)=C(Sc3ncc(CO)n3C)C(=O)O2)cc1Cl (stereo not drawn) [Example 98, 6-[2-(5-chloro-2,4-dimethoxyphenyl)ethyl]-6-cyclopentyl-4-hydroxy-3-([5-(hydroxymethyl)-1-methyl-1H-imidazol-2-yl]thio)-5,6-dihydro-2H-pyran-2-one]",< 1
2,"COc1ccc(CCC2(C3CCCC3)CC(=O)C(Oc3ccccc3)C(=O)O2)c(OC)c1 (stereo not drawn) [Example 163, 6-Cyclopentyl-6-[2-(2,4-dimethoxy-phenyl)-ethyl]-3-phenoxy-dihydro-pyran-2,4-dione]",10 to 50
3,"O=C1OC(CCc2ccc(O)cc2)(C2CCCC2)CC(O)=C1SCc1ccccc1 (stereo not drawn) [Example 84, 3-Benzylsulfanyl-6-cyclopentyl-4-hydroxy-6-[2-(4-hydroxyphenyl)ethyl]-5,6-dihydropyran-2-one]",1 to 10
4,"O=C1C=C(O)CC(CCC2CCCC2)(C2CCCC2)O1 (stereo not drawn) [Example 150, 6-Cyclopentyl-6-(2-cyclopentyl-ethyl)-4-hydroxy-5,6-dihydro-pyran-2-one]",10 to 50
5,"COc1cc(OC)c(CCC2(C3CCCC3)CC(O)=C(Sc3nnnn3CCN(C)C)C(=O)O2)cc1Cl (stereo not drawn) [Example 107, 6-[2-(5-Chloro-2,4-dimethoxyphenyl)ethyl]-6-cyclopentyl-3-({1-[2-(dimethylamino)ethyl]-1H-tetraazol-5-yl}thio)-4-hydroxy-5,6-dihydro-2H-pyran-2-one]",< 1
6,"CC1(c2ccc(CCC3(C4CCCC4)CC(=O)CC(=O)O3)cc2F)OCCO1 (stereo not drawn) [Example 60, 6-Cyclopentyl-6-{2-[3-fluoro-4-(2-methyl-[1,3]dioxolan-2-yl)-phenyl]-ethyl}-dihydro-pyran-2,4-dione]",1 to 10
7,"Cc1cc(SC2=C(O)CC(CCc3ccc(O)cc3)(c3ccccc3)OC2=O)c(C(C)(C)C)cc1CO (stereo not drawn) [Example 154, 3-(2-tert-butyl-4-hydroxymethyl-5-methyl-phenylsulfanyl)-4-hydroxy-6-[2-(4-hydroxy-phenyl)-ethyl]-6-phenyl-5,6-dihydro-pyran-2-one]",> 50
8,"COc1cc(OC)c(CCC2(C3CCCC3)CC(O)=C(Sc3nc(O)c4cc[nH]c4n3)C(=O)O2)cc1Cl (stereo not drawn) [Example 105, 6-[2-(5-Chloro-2,4-dimethoxyphenyl)ethyl]-6-cyclopentyl-4-hydroxy-3-[(4-hydroxy-7H-pyrrolo[2,3-d]pyrimidin-2-yl)thio]-5,6-dihydro-2H-pyran-2-one]",< 1
9,"COC(=O)c1ccc(CCC2(C3CCCC3)CC(=O)CC(=O)O2)cc1 (stereo not drawn) [Example 65, 4-[2-(2-Cyclopentyl-4,6-dioxo-tetrahydro-pyran-2-yl)-ethyl]-benzoic acid methyl ester]",1 to 10
10,"COc1cc(OC)c(CCC2(C3CCCC3)CC(O)=C(Sc3nc(N)c4cn[nH]c4n3)C(=O)O2)cc1Cl (stereo not drawn) [Example 97, 3-[(4-amino-1H-pyrazolo[3,4-d]pyrimidin-6-yl)thio]-6-[2-(5-chloro-2,4-dimethoxyphenyl)ethyl]-6-cyclopentyl-4-hydroxy-5,6-dihydro-2H-pyran-2-one]",< 1
11,Cc1cc(SC2=C(O)CC(CCc3ccco3)(C(C)C)OC2=O)c(C(C)(C)C)cc1CO (stereo not drawn) [Example 134],1 to 10
12,"O=C1C=C(O)CC(CCc2ccc(OCc3ccc(C(F)(F)F)nc3)cc2)(C2CCCC2)O1 (stereo not drawn) [Example 52, 6-Cyclopentyl-6-[2-(4-{[6-(trifluoromethyl)pyridin-3-yl]methoxy}phenyl)ethyl]4-hydroxy-5,6-dihydro-2H-pyran-2-one]",10 to 50
13,"COc1ccc(CCC2(C3CCCC3)CC(O)=C(Cl)C(=O)O2)cc1 (stereo not drawn) [Example 87, 3-Chloro-6-cyclopentyl-4-hydroxy-6-[2-(4-methoxyphenyl)ethyl]-5,6-dihydropyran-2-one]",10 to 50
14,"O=C1CC(=O)OC(CCc2ccc3c(c2)OCO3)(C2CCCC2)C1 (stereo not drawn) [Example 23, 6-(2-Benzo[1,3]dioxol-5-yl-ethyl)-6-cyclopentyl-dihydro-pyran-2,4-dione]",10 to 50
15,"COc1c(F)cc(CCC2(C3CCCC3)CC(=O)CC(=O)O2)cc1F (stereo not drawn) [Example 43, 6-Cyclopentyl-6-[2-(3,5-difluoro-4-methoxy-phenyl)-ethyl]-dihydro-pyran-2,4-dione]",1 to 10
16,O=C1OC(CCc2ccc(O)cc2)(C2CCCC2)CC(O)=C1Sc1ccc2ccccc2c1 (stereo not drawn) [Example 83],1 to 10
17,"COc1cc(OC)c(CCC2(C3CCCC3)CC(=O)CC(=O)O2)cc1Cl (stereo not drawn) [Example 39, 6-[2-(5-chloro-2,4-dimethoxyphenyl)ethyl]-6-cyclopentyldihydro-2H-pyran-2,4(3H)-dione]",< 1
18,"COC1=CC(=O)OC(CCc2cccc(C(C)C)c2)(C2CCCC2)C1 (stereo not drawn) [Example 34, 6-Cyclopentyl-6-[2-(3-isopropyl)-ethyl]-4-methyoxy-5,6-dihydro-pyran-2-one]",10 to 50

row,SMILES,IC50 [µM]
1,"COc1ccc(CCC2(C3CCCC3)CC(O)=C(Sc3nc4nc(C)cc(C)n4n3)C(=O)O2)cc1Cl (stereo not drawn) [Example 101, 6-[2-(3-Chloro-4-methoxy-phenyl)-ethyl]-6-cyclopentyl-3-(5,7-dimethyl-[1,2,4]triazolo[1,5-a]pyrimidin-2-ylsulfanyl)-4-hydroxy-5,6-dihydro-pyran-2-one]",< 1
2,"COc1ccc(CCC2(C3CCCC3)CC(O)=C(Sc3nc(N)c4cn[nH]c4n3)C(=O)O2)cc1 (stereo not drawn) [Example 120, 3-[(4-Amino-1H-pyrazolo[3,4-d]pyrimidin-6-yl)thio]-6-cyclopentyl-4-hydroxy-6-[2-(4-methoxyphenyl)ethyl]-5,6-dihydro-2H-pyran-2-one]",< 1
3,"O=C1CC(=O)OC(CCc2cccc(Cl)c2)(C2CCCC2)C1 (stereo not drawn) [Example 26, 6-[2-(3-Chloro-phenyl)-ethyl]-6-cyclopentyl-dihydro-pyran-2,4-dione]",1 to 10
4,"O=C1CC(=O)OC(CCc2ccc(OC3CCCC3)c(F)c2)(C2CCCC2)C1 (stereo not drawn) [Example 77, 6-Cyclopentyl-6-[2-(4-cyclopentyloxy-3-fluoro-phenyl)-ethyl]-dihydro-pyran-2,4-dione]",1 to 10
5,"O=C1CC(=O)OC(CCc2ccc(O)cc2)(C2CCCC2)C1 (stereo not drawn) [Example 1, 6-Cyclopentyl-6-[2-(4-hydroxyphenyl)ethyl]dihydropyran-2,4-dione]",10 to 50
6,"O=C1CC(=O)OC(CCc2cccc3ccccc23)(C2CCCC2)C1 (stereo not drawn) [Example 2, 6-Cyclopentyl-6-(2-napthalen-1-ylethyl)dihydropyran-2,4-dione]",> 50
7,"COc1cccc(CCC2(C3CCCC3)CC(O)=CC(=O)O2)c1 (stereo not drawn) [Example 16, 6-Cyclopentyl-4-hydroxy-6-[2-(3-methoxy-phenyl)-ethyl]-5,6-dihydropyran-2-one]",10 to 50
8,"O=C1C=C(O)CC(CCc2ccc(OCc3ccc(Cl)c(Cl)c3)cc2)(C2CCCC2)O1 (stereo not drawn) [Example 51, 6-Cyclopentyl-6-(2-{4-[(3,4-dichlorobenzyl)oxy]phenyl}ethyl)-4-hydroxy-5,6-dihydro-2H-pyran-2-one]",10 to 50
9,"COc1ccc(CCC2(C3CCCC3)CC(=O)C(C(=O)Cc3cccnc3)C(=O)O2)c(OC)c1 (stereo not drawn) [Example 172, 6-Cyclopentyl-6-[2-(2,4-dimethoxy-phenyl)-ethyl]-3-(2-pyridin-3-yl-acetyl)-dihydro-pyran-2,4-dione]",1 to 10
10,"COc1cc(OC)c(CCC2(C3CCCC3)CC(O)=C(Sc3nc4nc(C)cc(C)n4n3)C(=O)O2)cc1Cl (stereo not drawn) [Example 91, 6-[2-(5-Chloro-2,4-dimethoxyphenyl)ethyl]-6-cyclopentyl-3-[(5,7-dimethyl[1,2,4]triazolo[1,5-a]pyrimidin-2-yl)thio]-4-hydroxy-5,6-dihydro-2H-pyran-2-one]",< 1
11,"Cc1cc(SC2=C(O)CC(CCC(C)C)(C3CCCC3)OC2=O)c(C(C)(C)C)cc1CO (stereo not drawn) [Example 144, 3-(2-tert-butyl-4-hydroxymethyl-5-methyl-phenylsulfanyl)-6-cyclopentyl-4-hydroxy-6-(3-methyl-butyl)-5,6-dihydro-pyran-2-one]",> 50
12,"COc1ccc(CCC2(C3CCCC3)CC(O)=C(Sc3nnnn3CCN(C)C)C(=O)O2)cc1 (stereo not drawn) [Example 116, 6-Cyclopentyl-3-({1-[2-(dimethylamino)ethyl]-1H-tetraazol-5-yl}thio)-4-hydroxy-6-[2-(4-methoxyphenyl)ethyl]-5,6-dihydro-2H-pyran-2-one]",1 to 10
13,"COc1ccc(CCC2(C3CCCC3)CC(=O)CC(=O)O2)cc1F (stereo not drawn) [Example 30, 6-Cyclopentyl-6-[2-(3-fluoro-4-methoxy-phenyl)-ethyl]-dihydro-pyran-2,4-dione]",< 1
14,"COc1ccc(CCC2(C3CCCC3)CC(O)=C(Sc3ccc(O)cc3)C(=O)O2)cc1Cl (stereo not drawn) [Example 126, 6-[2-(3-Chloro-4-methoxy-phenyl)-ethyl]-6-cyclopentyl-4-hydroxy-3-(4-hydroxy-phenylsulfanyl)-5,6-dihydro-pyran-2-one]",< 1
15,"COc1ccc(CCC2(C3CCCC3)CC(=O)CC(=O)O2)cn1 (stereo not drawn) [Example 8, 6-cyclopentyl-6-[2-(6-methoxypyridin-3-yl)ethyl]dihydro-2H-pyran-2,4(3H)-dione]",10 to 50
16,"COc1cc(OC)c(CCC2(C3CCCC3)CC(O)=C(Sc3nnc(O)n3C)C(=O)O2)cc1Cl (stereo not drawn) [Example 95, 6-[2(5-chloro-2,4-dimethoxyphenyl)ethyl]-6-cyclopentyl-4-hydroxy-3-[(5-hydroxy-4-methyl-4H-1,2,4-triazol-3-yl)thio]-5,6-dihydro-2H-pyran-2-one]",< 1
17,"COc1cc(OC)c(CCC2(C3CCCC3)CC(O)=C(Sc3nc4ccc(C(=O)O)cc4[nH]3)C(=O)O2)cc1Cl (stereo not drawn) [Example 99, 2-({6-[2-(5-chloro-2,4-dimethoxyphenyl)ethyl]-6-cyclopentyl-4-hydroxy-2-oxo-5,6-dihydro-2H-pyran-3-yl}thio)-1H-benzimidazole-5-carboxylic acid]",< 1
18,"COc1ccc(CCC2(C3CCCC3)CC3=C(CCCO3)C(=O)O2)c(OC)c1 (stereo not drawn) [Example 103, 7-Cyclopentyl-7-[2-(2,4-dimethoxyphenyl)ethyl]-3,4,7,8-tetrahydro-2H,5H-pyrano[4,3-b]pyran-5-one]",> 50
